Measurements: publication PMC8584173, “The Cytotoxic Effect of Copper (II) Complexes with Halogenated 1,3-Disubstituted Arylthioureas on Cancer and Bacterial Cells” (International Journal of Molecular Sciences, 2021)

Legend:
E. coli ATCC 25922 = experiment: MIC, twofold serial microdilution; format: cell-based, Escherichia coli; settings: E. coli ATCC 25922, 18 h, 35 °C
Experimental: (§1) The antimicrobial activity of the compounds was tested on Gram-positive bacteria (Staphylococcus aureus NCTC 4163, Staphylococcus aureus ATCC 25923, Staphylococcus aureus ATCC 6538, Staphylococcus aureus ATCC 29213, Staphylococcus epidermidis ATCC 12228, Staphylococcus epidermidis ATCC 35984), Gram-negative rods (Escherichia coli ATCC 10538, Escherichia coli ATCC 25922, Pseudomonas aeruginosa ATCC 15442, Pseudomonas aeruginosa ATCC 27863) and yeasts (Candida albicans ATCC 10231, Candida albicans ATCC 90028, Candida parapsilosis ATCC 22019). Hospital methicillin-resistant strains of Staphylococcus aureus and Staphylococcus epidermidis were obtained from the collection of the Department of Pharmaceutical Microbiology, Medical University of Warsaw, Poland.
(§2) Antifungal activities were assessed using Mueller–Hinton agar + 2% glucose and 0.5 µg/mL methylene blue dye medium. Sterile filter paper discs (9 mm diameter, Whatman Number 3 chromatography paper) were dripped with tested compound solutions (in dimethylsulfoxide, DMSO) to load 400 μg of a given compound per disc. Dry discs were placed on the surface of appropriate agar medium. The results (diameter of the growth inhibition zone) were read after 18 h of incubation at 35 °C. Minimal inhibitory concentration (MIC) was tested by the twofold serial microdilution method (in 96-well microtiter plates) using Mueller–Hinton broth medium (Beckton Dickinson) for bacteria or RPMI-1640 medium for Candida species, according to CLSI guidelines. The stock solution of tested agent was prepared in DMSO and diluted in sterile water. […] The final inoculum of all studied microorganisms was 10^5 CFU/ mL^−1 (colony forming units per ml). Minimal inhibitory concentrations (the lowest concentration of a tested agent that prevents visible growth of a microorganism) were read after 18 h (bacteria) or 24 h (yeasts) of incubation at 35 °C.

E. coli NCTC 10538 = experiment: MIC, twofold serial microdilution; format: cell-based, Escherichia coli; settings: E. coli NCTC 10538, 18 h, 35 °C
Experimental: as §1, §2

[1] = test system: PC3 (human metastatic prostate cancer); experiment: MTT cytotoxicity assay, PC3; format: cell-based; settings: for IC50: PC3, 72 h, MTT; for fold more active than cisplatin: PC3 cell lines
Experimental: (§3) The human primary (SW480), metastatic (SW620) colon cancer, metastatic prostate cancer (PC3) and human immortal keratinocyte (HaCaT) cell lines were purchased from the American Type Culture Collection (ATCC, Rockville, USA). The cells were cultured in medium according to protocols (MEM for SW480 and SW620, RPMI 1640 for PC3 and DMEM for HaCaT cells) supplemented with 10% fetal bovine serum (FBS), penicillin (100 U/mL) and streptomycin (100 μg/mL) and cultured in 37 °C/ 5% CO2 humidified incubator. The cells were cultured until appropriate confluence was achieved (80–90%). Next, they were harvested by treatment with 0.25% trypsin (Gibco Life Technologies, USA) and used for studies.
(§4) Cells without studied compounds in medium were used as a control.
(§5) The cell viability was assessed by determination of MTT salt (3-(4,5-dimethylthiazol-2-yl)-2,5-diphenyltetrazolium bromide) conversion by mitochondrial dehydrogenase. MTT assay was performed as previously described. Experiments were repeated three times. Cell viability was presented as a percentage of MTT reduction in the treated cells versus the control cells. Number of viable cells cultured without studied compounds was assumed to be 100%. Decreased relative MTT level means decreased cell viability. Thiourea complexes with the highest cytotoxic potential assessed by MTT determination (with the lowest IC50) were chosen for subsequent assessments of cytotoxicity mechanisms.

[2] = test system: HaCaT (human immortal keratinocyte cell line); experiment: MTT cytotoxicity assay, HaCaT; format: cell-based; settings: HaCaT normal cells, 72 h
Experimental: as §3, §4, §5

C. albicans ATCC 90028 = experiment: MIC, twofold serial microdilution; format: cell-based, Candida albicans; settings: C. albicans ATCC 90028, 24 h, 35 °C
Experimental: as §1, §2

C. albicans ATCC 10231 = experiment: MIC, twofold serial microdilution; format: cell-based, Candida albicans; settings: C. albicans ATCC 10231, 24 h, 35 °C
Experimental: as §1, §2

[3] = test system: hospital S. epidermidis (MRSE); experiment: MIC, hospital S. epidermidis; format: cell-based, Staphylococcus epidermidis; settings: for times more effective than the reference chemotherapeutic (ciprofloxacin): S. epidermidis 424, 471, 511, 515 and 431–433 isolates
Experimental: as §1, §2

PC3 cells = experiment: Annexin V-FITC/PI flow cytometry, PC3; format: cell-based, human; settings: PC3, IC50 dose, 72 h
Experimental: The cells were cultured and harvested under the conditions described in the cell culture section. […] The effect of these compounds on the process of early and late apoptosis and necrosis was determined, as described previously, by dual staining with annexin V-FITC and propidium iodide according to manufacturer’s protocol (Becton Dickinson). The cells that were annexin V-FITC positive and PI-negative were identified as early apoptotic and annexin V-FITC and PI-positive as late apoptotic or necrotic.

[4] = test system: SW480 (human primary colon cancer); experiment: MTT cytotoxicity assay, SW480; format: cell-based; settings: SW480, 72 h
Experimental: as §3, §4, §5

Structure (SMILES) | MIC (E. coli ATCC 25922) [µg/mL] | MIC (E. coli NCTC 10538) [µg/mL] | IC50 [1] [µM] | fold more active than cisplatin [1] | IC50 [2] [µM] | MIC (C. albicans ATCC 90028) [µg/mL] | MIC (C. albicans ATCC 10231) [µg/mL] | times more effective than the reference chemotherapeutic (ciprofloxacin) [3] | early apoptosis, % of cells (PC3 cells) | IC50 [4] [µM] | MIC ([3]; most of hospital S. epidermidis species) [µg/mL]
O=[N+]([O-])c1cc([N+]2=C(Nc3ccc(I)cc3)[S][Cu-2]23[S]C(Nc2ccc(I)cc2)=[N+]3c2ccc(Cl)c([N+](=O)[O-])c2)ccc1Cl [Compound 8, Copper (II) complex with 1-(4-iodophenyl)-3-(4-chloro-3-nitrophenyl)thiourea] | 128 | 128 | 4.3 ± 0.5 | 1.2–3.1 fold | 103 ± 3.4 | 128 | 64 | 2–16 times | 45.7% ± 3.3% | 3.9 ± 0.8 | 
O=[N+]([O-])c1cc([N+]2=C(Nc3ccc(F)c(Cl)c3)[S][Cu-2]23[S]C(Nc2ccc(F)c(Cl)c2)=[N+]3c2ccc(Cl)c([N+](=O)[O-])c2)ccc1Cl [Compound 4, Copper (II) complex with 1-(3-chloro-4-fluorophenyl)-3-(4-chloro-3-nitrophenyl)thiourea] | 128 | 128 | 23.2 ± 1.6 |  | 121 ± 5.2 | 128 | 128 | 2–16 times |  | 19.2 ± 1.1 | 
O=[N+]([O-])c1cc([N+]2=C(Nc3ccccc3F)[S][Cu-2]23[S]C(Nc2ccccc2F)=[N+]3c2ccc(Cl)c([N+](=O)[O-])c2)ccc1Cl [Compound 7, Copper (II) complex with 1-(2-fluorophenyl)-3-(4-chloro-3-nitrophenyl)thiourea] | 256 | 128 | 10.8 ± 1.3 | 1.2–3.1 fold | 138 ± 4.4 | 128 | 128 | 2–16 times | one third | 15.5 ± 2.6 | 
O=[N+]([O-])c1cc([N+]2=C(Nc3ccc(Cl)c(Cl)c3)[S][Cu-2]23[S]C(Nc2ccc(Cl)c(Cl)c2)=[N+]3c2ccc(Cl)c([N+](=O)[O-])c2)ccc1Cl [Compound 5, Copper (II) complex with 1-(4-chloro-3-nitrophenyl)-3-(3,4-dichlorophenyl)thiourea] | 128 | 128 | 11.4 ± 2.4 | 1.2–3.1 fold | 165 ± 4.7 | 128 | 128 |  |  | 20.6 ± 2.1 | 
O=[N+]([O-])c1cc([N+]2=C(Nc3cccc(Br)c3)[S][Cu-2]23[S]C(Nc2cccc(Br)c2)=[N+]3c2ccc(Cl)c([N+](=O)[O-])c2)ccc1Cl [Compound 2, Copper (II) complex with 1-(3-bromophenyl)-3-(4-chloro-3-nitrophenyl)thiourea] | 128 | 128 | 19.2 ± 2.2 |  | 167 ± 2.3 | 64 | 64 | 2–16 times |  | 24.3 ± 2.6 | 
O=[N+]([O-])c1cc([N+]2=C(Nc3ccc(Br)cc3)[S][Cu-2]23[S]C(Nc2ccc(Br)cc2)=[N+]3c2ccc(Cl)c([N+](=O)[O-])c2)ccc1Cl [Compound 3, Copper (II) complex with 1-(4-bromophenyl)-3-(4-chloro-3-nitrophenyl)thiourea] | >256 | 128 | 8.8 ± 0.8 | 1.2–3.1 fold | 103 ± 3.2 | 64 | 64 |  | 45.5% ± 3.5% | 11.9 ± 2.1 | 4 to 8
O=[N+]([O-])c1cc(NC2=[N+](c3ccc(Cl)c([N+](=O)[O-])c3)[Cu-2]3([S]2)[S]C(Nc2ccc(Cl)c([N+](=O)[O-])c2)=[N+]3c2ccc(Cl)c([N+](=O)[O-])c2)ccc1Cl [Compound 6, Copper (II) complex with 1,3-bis(4-chloro-3-nitrophenyl)thiourea] | 128 | 128 | 20.3 ± 3.1 |  | 123 ± 2.1 | 64 | 64 |  |  | 26.8 ± 2.3 | 
O=[N+]([O-])c1cc([N+]2=C(Nc3ccccc3Br)[S][Cu-2]23[S]C(Nc2ccccc2Br)=[N+]3c2ccc(Cl)c([N+](=O)[O-])c2)ccc1Cl [Compound 1, Copper (II) complex with 1-(2-bromophenyl)-3-(4-chloro-3-nitrophenyl)thiourea] | 256 | 128 | 9.7 ± 0.1 | 1.2–3.1 fold | 110 ± 3.4 | ≥256 | ≥256 | 2–16 times | one third | 4.7 ± 0.3 | 
